The data set can be described thus: Toxicity in mouse at 10 mg/kg measured after 21 days. Type of data set: organism-based. Conditions: in vivo, 504 h, time 21 day.

Molecules are shown by their SMILES.

As for `CNCc1cccc(CCc2ccc3c(C)cc(N)nc3c2)c1.Cl.Cl`, the Activity result is listed as “Non-Toxic”.

The values above are taken from ChEMBL document CHEMBL5247665, “Improved synthesis and anticancer activity of a potent neuronal nitric oxide synthase inhibitor” (Bioorg Med Chem Lett, 2023).
